Tests used:
Assay in all cases: relative viability (nuclei count vs DMSO), 5 days (fraction); higher = more cells survive
Bemcentinib + Navitoclax = compound: Nc1nc(Nc2ccc3c(c2)CC[C@@H](N2CCCC2)CC3)nn1-c1cc2c(nn1)-c1ccccc1CCC2 [Bemcentinib] + CC1(C)CCC(c2ccc(Cl)cc2)=C(CN2CCN(c3ccc(C(=O)NS(=O)(=O)c4ccc(N[C@H](CCN5CCOCC5)CSc5ccccc5)c(S(=O)(=O)C(F)(F)F)c4)cc3)CC2)C1 [Navitoclax] (partner 0.5 µM)
In short: (§1)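 Medians of duplicate plates are given as relative viability. That measure is the nuclei count in treated wells divided by the count in vehicle wells. Counts were taken on 4× images of lung cancer cell lines in 1536-well plates, 5 days after pin-tool dosing the day after seeding with one drug alone or a fixed anchor-drug dose plus five library-drug doses (not always all listed) in √10 steps.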

[1] = compound: CC1=CC=C(C=C1)C(=O)CN2C3=C(CCCC3)SC2=N [Pifithrin_alpha] + CC(=O)Nc1cccc(-n2c(=O)n(C3CC3)c(=O)c3c(Nc4ccc(I)cc4F)n(C)c(=O)c(C)c32)c1 [Trametinib] (partner 0.02 µM)
In short: as §1

Bemcentinib + Olaparib = compound: Nc1nc(Nc2ccc3c(c2)CC[C@@H](N2CCCC2)CC3)nn1-c1cc2c(nn1)-c1ccccc1CCC2 [Bemcentinib] + O=C(c1cc(Cc2n[nH]c(=O)c3ccccc23)ccc1F)N1CCN(C(=O)C2CC2)CC1 [Olaparib] (partner 8 µM)
In short: as §1

Bemcentinib + Phenformin = compound: Nc1nc(Nc2ccc3c(c2)CC[C@@H](N2CCCC2)CC3)nn1-c1cc2c(nn1)-c1ccccc1CCC2 [Bemcentinib] + N=C(N)NC(=N)NCCc1ccccc1 [Phenformin] (partner 250 µM)
In short: as §1

| Cell Line | relative viability (Bemcentinib + Navitoclax; first compound 0.04 µM) | relative viability (Bemcentinib + Navitoclax; first compound 0.1265 µM) | relative viability (Bemcentinib + Navitoclax; first compound 0.4 µM) | relative viability (Bemcentinib + Navitoclax; first compound 1.265 µM) | relative viability (Bemcentinib + Navitoclax; first compound 4 µM) | relative viability ([1]; first compound 3.162 µM) | relative viability ([1]; first compound 10 µM) | relative viability ([1]; first compound 31.62 µM) | relative viability ([1]; first compound 100 µM) | relative viability (Bemcentinib + Olaparib; first compound 0.04 µM) | relative viability (Bemcentinib + Olaparib; first compound 0.1265 µM) | relative viability (Bemcentinib + Olaparib; first compound 0.4 µM) | relative viability (Bemcentinib + Olaparib; first compound 1.265 µM) | relative viability (Bemcentinib + Olaparib; first compound 4 µM) | relative viability (Bemcentinib + Phenformin; first compound 0.04 µM) | relative viability (Bemcentinib + Phenformin; first compound 0.1265 µM) | relative viability (Bemcentinib + Phenformin; first compound 0.4 µM) | relative viability (Bemcentinib + Phenformin; first compound 4 µM) | relative viability ([1]; first compound 1 µM) | relative viability (Bemcentinib + Phenformin; first compound 1.265 µM) |
| --- | --- | --- | --- | --- | --- | --- | --- | --- | --- | --- | --- | --- | --- | --- | --- | --- | --- | --- | --- | --- |
| HCC-78 | 0.657 | 0.792 | 0.859 | 0.943 | 0.836 | 0.774 | 0.71 | 0.541 | 0.598 | 0.919 | 0.794 | 0.971 | 0.808 | 0.833 | 0.639 | 0.656 | 0.742 | 0.668 | – | – |
| HCC-366 | 1.11 | 1.23 | 1.11 | 1.07 | 1.03 | 0.248 | 0.238 | – | 0.187 | 0.421 | 0.35 | 0.415 | 0.387 | 0.353 | 0.604 | 0.63 | 0.638 | 0.587 | 0.249 | 0.653 |
| HCC-827 | 1.03 | 1.04 | 1.07 | 0.957 | 1.02 | 0.562 | 0.576 | 0.498 | 0.573 | 0.669 | 0.691 | 0.554 | 0.623 | 0.625 | 0.413 | 0.375 | 0.43 | 0.419 | 0.558 | 0.431 |
| HOP-62 | 1.04 | 0.97 | 1.16 | 0.995 | 1.13 | 0.377 | 0.368 | 0.361 | 0.335 | 0.342 | 0.621 | 0.575 | 0.528 | 0.472 | 0.694 | 0.707 | 0.834 | 0.645 | 0.343 | 0.704 |
| IA-LM | 0.748 | 0.988 | 0.975 | 0.841 | 0.725 | – | – | – | – | 0.799 | 0.913 | 0.885 | 0.859 | 0.89 | – | – | – | – | – | – |
| LC-2-ad | 0.415 | 0.547 | 0.609 | 0.536 | 0.509 | 0.945 | 0.912 | 0.757 | 0.811 | 0.719 | 0.676 | 0.767 | 0.711 | 0.655 | 0.535 | 0.601 | 0.592 | 0.588 | 0.973 | 0.602 |
| LCLC-97TM1 | 0.398 | 0.487 | – | 0.479 | 0.636 | 0.167 | 0.191 | – | 0.18 | 0.411 | 0.455 | 0.476 | 0.289 | 0.382 | 0.471 | 0.483 | 0.407 | 0.396 | – | 0.383 |
| LCLC-103H | – | – | – | – | – | 0.597 | 0.646 | 0.623 | 0.702 | 0.802 | 0.811 | 0.796 | 0.86 | 0.783 | 0.366 | 0.255 | 0.332 | 0.35 | 0.681 | 0.289 |
| LK-2 | 0.755 | 0.903 | 0.994 | 0.904 | 0.904 | 0.856 | 0.684 | 0.601 | 0.687 | 0.694 | 0.756 | 0.837 | 0.839 | 0.677 | 0.461 | 0.483 | 0.443 | 0.828 | 0.811 | 0.463 |
| LOU-NH91 | 0.639 | 0.728 | 0.625 | 0.674 | 0.722 | 0.72 | 0.731 | 0.612 | 0.568 | 0.886 | 0.848 | 0.942 | 0.927 | 0.937 | 0.637 | 0.663 | 0.73 | 0.673 | 0.746 | 0.748 |
| LU99A | 0.766 | 0.93 | 0.697 | 0.755 | 0.821 | 0.601 | 0.573 | – | 0.575 | 0.27 | 0.259 | 0.244 | 0.259 | 0.286 | 0.806 | 0.856 | 0.835 | 0.827 | 0.458 | 0.801 |
| NCI-H358 | – | – | – | – | – | 0.124 | 0.129 | 0.12 | 0.121 | 0.59 | 0.622 | 0.598 | 0.593 | 0.669 | 0.321 | 0.348 | 0.325 | 0.39 | 0.138 | 0.355 |
| NCI-H522 | – | – | – | – | – | 0.754 | 0.743 | 0.693 | 0.618 | 0.739 | 0.696 | 0.593 | 0.556 | 0.652 | 0.598 | 0.733 | 0.729 | 0.674 | 0.61 | 0.722 |
| NCI-H661 | – | – | – | – | – | 0.603 | 0.555 | 0.462 | 0.503 | 0.692 | 0.782 | 0.789 | 0.738 | 0.763 | 0.268 | 0.263 | 0.28 | 0.286 | 0.561 | 0.271 |
| NCI-H1299 | 1.02 | 1.04 | 1.05 | 1.04 | 1 | – | – | – | – | 1.01 | 1.02 | 0.961 | 1 | 0.93 | – | – | – | – | – | – |
| NCI-H1563 | – | – | – | – | – | – | – | – | – | – | – | – | – | – | 0.671 | 0.742 | 0.671 | 0.618 | – | 0.671 |
| NCI-H1623 | – | – | – | – | – | – | – | – | – | – | – | – | – | – | 0.607 | 0.497 | 0.621 | 0.563 | – | 0.641 |
| NCI-H1648 | – | – | – | – | – | 0.332 | 0.453 | 0.48 | 0.422 | 1.3 | 0.925 | 0.746 | 0.777 | 0.695 | – | – | – | – | 0.487 | – |
| NCI-H1703 | 1.08 | 1.03 | 1.34 | 1.04 | 0.85 | – | – | – | – | 0.34 | 0.447 | 0.465 | 0.389 | 0.357 | – | – | – | – | – | – |
| NCI-H2342 | – | – | – | – | – | 0.734 | 0.811 | 0.772 | 0.843 | 0.43 | 0.441 | 0.359 | 0.486 | 0.463 | 0.564 | 0.581 | 0.611 | 0.611 | 0.856 | 0.617 |
| SW 900 | – | – | – | – | – | 0.801 | 0.636 | 0.57 | 0.723 | 0.841 | 1.17 | 0.804 | 0.769 | 0.817 | 0.396 | 0.588 | 0.557 | 0.458 | 0.698 | 0.648 |

From the supplement of paper PMC10307832
